Experimental data taken from ChEMBL document CHEMBL3414470, “Synthesis and biological evaluation of 4-oxycoumarin derivatives as a new class of antifilarial agents” (Eur J Med Chem, 2015).
Converted amounts (≈) assume the structure as drawn. The source made the active and inactive calls. The calls are words filed in the database; no cut-off is given here.

Key:
Brugia malayi [1] = assay: Antifilarial activity against Brugia malayi adult worm assessed as reduction in motility at 2.17 uM after 5 days by MTT dye reduction assay; assay type: functional, organism-based
Brugia malayi [2] = assay: Antifilarial activity against Brugia malayi microfilaria assessed as reduction in motility at 1.12 uM after 5 days by MTT dye reduction assay; assay type: functional, organism-based
Brugia malayi [3] = assay: Antifilarial activity against Brugia malayi adult worm assessed as reduction in motility after 5 days by MTT dye reduction assay; assay type: functional, organism-based
Brugia malayi [4] = assay: Antifilarial activity against Brugia malayi microfilaria assessed as reduction in motility at 4.45 uM after 5 days by MTT dye reduction assay; assay type: functional, organism-based
Brugia malayi [5] = assay: Antifilarial activity against Brugia malayi microfilaria assessed as reduction in motility at 2.17 uM after 5 days by MTT dye reduction assay; assay type: functional, organism-based
Brugia malayi [6] = assay: Antifilarial activity against Brugia malayi microfilaria assessed as reduction in motility after 5 days by MTT dye reduction assay; assay type: functional, organism-based
Brugia malayi [7] = assay: Antifilarial activity against Brugia malayi adult worm assessed as reduction in motility at 4.45 uM after 5 days by MTT dye reduction assay; assay type: functional, organism-based
Brugia malayi [8] = assay: Antifilarial activity against Brugia malayi adult worm assessed as reduction in motility at 1.12 uM after 5 days by MTT dye reduction assay; assay type: functional, organism-based
Brugia malayi [9] = assay: Antifilarial activity against Brugia malayi microfilaria assessed as reduction in motility at 8.9 uM after 5 days by MTT dye reduction assay; assay type: functional, organism-based
Vero [10] = assay: (§1) Selectivity index, ratio of CC50 for African green monkey Vero cells to IC50 for Brugia malayi microfilaria; assay type: functional
Vero [11] = assay: (§2) Selectivity index, ratio of CC50 for African green monkey Vero cells to IC50 for Brugia malayi adult worm; assay type: functional
Brugia malayi [12] = assay: Antifilarial activity against Brugia malayi adult worm assessed as reduction in motility at 8.9 uM after 5 days by MTT dye reduction assay; assay type: functional, organism-based
Brugia malayi [13] = assay: Antifilarial activity against Brugia malayi adult worm infected in jird model assessed as sterile female at 100 mg/kg, sc after 5 days measured till day 45 relative to control; assay type: functional; conditions: route subcutaneous
Brugia malayi [14] = assay: Antifilarial activity against Brugia malayi microfilariae infected in jird model assessed as microfilaricidal activity at 100 mg/kg, sc after 5 days measured till day 45 relative to control; assay type: functional; conditions: route subcutaneous
Brugia malayi [15] = assay: Antifilarial activity against Brugia malayi adult worm infected in jird model assessed as adulticidal activity at 100 mg/kg, sc after 5 days measured till day 45 relative to control; assay type: functional; conditions: route subcutaneous
Brugia malayi [16] = assay: Antifilarial activity against Brugia malayi adult worm assessed as reduction in motility at 0.625 uM after 5 days by MTT dye reduction assay; assay type: functional; conditions: 120 h
[17] = (§3) Cytotoxicity against African green monkey Vero cells after 72 hrs by resazurin dye-based fluorescence assay; assay type: cell-based; conditions: chlorocebus sabaeus, Vero cells
Brugia malayi [18] = assay: Antifilarial activity against Brugia malayi microfilaria assessed as reduction in motility at 1.25 uM after 5 days by MTT dye reduction assay; assay type: functional; conditions: 120 h
Brugia malayi [19] = assay: Antifilarial activity against Brugia malayi adult worm assessed as reduction in motility at 5 uM after 5 days by MTT dye reduction assay; assay type: functional; conditions: 120 h
Brugia malayi [20] = assay: Antifilarial activity against Brugia malayi microfilaria assessed as reduction in motility at 0.625 uM after 5 days by MTT dye reduction assay; assay type: functional; conditions: 120 h
[21] = as §1; assay type: functional
Brugia malayi [22] = assay: Antifilarial activity against Brugia malayi microfilaria assessed as reduction in motility at 5 uM after 5 days by MTT dye reduction assay; assay type: functional; conditions: 120 h
[23] = as §2; assay type: functional
Brugia malayi [24] = assay: Antifilarial activity against Brugia malayi adult worm assessed as reduction in motility at 2.5 uM after 5 days by MTT dye reduction assay; assay type: functional; conditions: 120 h
Brugia malayi [25] = assay: Antifilarial activity against Brugia malayi adult worm assessed as reduction in motility at 1.25 uM after 5 days by MTT dye reduction assay; assay type: functional; conditions: 120 h
Brugia malayi [26] = assay: Antifilarial activity against Brugia malayi microfilaria assessed as reduction in motility at 0.312 uM after 5 days by MTT dye reduction assay; assay type: functional; conditions: 120 h
Brugia malayi [27] = assay: Antifilarial activity against Brugia malayi microfilaria assessed as reduction in motility at 2.5 uM after 5 days by MTT dye reduction assay; assay type: functional; conditions: 120 h
Brugia malayi [28] = assay: Antifilarial activity against Brugia malayi adult worm assessed as reduction in motility at 0.312 uM after 5 days by MTT dye reduction assay; assay type: functional; conditions: 120 h
Brugia malayi [29] = assay: Antifilarial activity against Brugia malayi adult worm assessed as reduction in motility at 10 uM after 5 days by MTT dye reduction assay; assay type: functional, organism-based
Brugia malayi [30] = assay: Antifilarial activity against Brugia malayi microfilaria assessed as reduction in motility at 10 uM after 5 days by MTT dye reduction assay; assay type: functional, organism-based
Vero [31] = assay: as §3; assay type: cell-based; conditions: chlorocebus sabaeus, vero, 72 h

MIC (Brugia malayi [3]) | MIC (Brugia malayi [6]) | MIC (Brugia malayi [3]; Brugia malayi, 120 h) [µM] | MIC (Brugia malayi [6]; Brugia malayi, 120 h) [µM] | Compound | Activity (Brugia malayi [13]) [%] | Activity (Brugia malayi [14]) [%] | Activity (Brugia malayi [15]) [%] | inhibition at 0.625 µM (Brugia malayi [16]) [%] | CC50 at 72 h [17] [µM] | IC50 (Brugia malayi [3]; Brugia malayi, 120 h) [µM] | inhibition at 1.25 µM (Brugia malayi [18]) [%] | IC50 (Brugia malayi [6]; Brugia malayi, 120 h) [µM] | inhibition at 5 µM (Brugia malayi [19]) [%] | inhibition at 0.625 µM (Brugia malayi [20]) [%] | Ratio CC50/IC50 [21] | inhibition at 5 µM (Brugia malayi [22]) [%] | Ratio CC50/IC50 [23] | inhibition at 2.5 µM (Brugia malayi [24]) [%] | inhibition at 1.25 µM (Brugia malayi [25]) [%] | inhibition at 0.312 µM (Brugia malayi [26]) [%] | further results
8.9 µM | 10 µM | – | – | IVERMECTIN [listing 1 of 2 here] | – | – | – | – | – | – | – | – | – | – | – | – | – | – | – | – | inhibition (Brugia malayi [1]): 21.6%; inhibition (Brugia malayi [2]): 50%; inhibition (Brugia malayi [4]): 1%; inhibition (Brugia malayi [5]): 1%; inhibition (Brugia malayi [7]): 35.3%; inhibition (Brugia malayi [8]): 17.7%; inhibition (Brugia malayi [9]): 0%; Ratio CC50/IC50 (Vero [10]): 13.3; Ratio CC50/IC50 (Vero [11]): 29.5; inhibition (Brugia malayi [12]): 61.2%
inactive | inactive | – | – | CCN(CC)C(=O)N1CCN(C)CC1 [DIETHYLCARBAMAZINE] | 0 | 39.5 | 33.3 | – | – | – | – | – | – | – | – | – | – | – | – | – | –
– | – | 5 (≈ 1.59 µg/mL) | 2.5 (≈ 0.796 µg/mL) | CN1CCN(CC(O)COc2cc(=O)oc3ccccc23)CC1 (centres undefined) | 0 | 30.4 | 44.4 | 29.8 | > 100 | 1.73 | 75 | 0.28 | 85.6 | 75 | >357.14 | 100 | >57.8 | 45.8 | 38.7 | 75 | inhibition at 2.5 µM (Brugia malayi [27]): 75%; inhibition at 0.312 µM (Brugia malayi [28]): 11.8%
– | – | 2.5 (≈ 0.793 µg/mL) | 2.5 (≈ 0.793 µg/mL) | O=c1cc(OCC(O)CNC2CCCCC2)c2ccccc2o1 (centres undefined) | 0 | 31.8 | 66.6 | 24.2 | > 100 | 0.36 | 100 | 0.26 | – | 50 | >384.6 | – | >277.7 | 92 | 47 | 50 | inhibition at 2.5 µM (Brugia malayi [27]): 100%; inhibition at 0.312 µM (Brugia malayi [28]): 16.2%
inactive | inactive | – | – | O=C(O)CCCNCC(O)COc1cc(=O)oc2ccccc12 (centres undefined) | – | – | – | – | – | – | – | – | 17.5 | – | – | 1 | – | – | – | – | Activity (Brugia malayi [29]): inactive; Activity (Brugia malayi [30]): inactive
– | – | – | – | IVERMECTIN [listing 2 of 2 here] | – | – | – | – | – | – | – | – | – | – | – | – | – | – | – | – | CC50 (Vero [31]): 53.1 µM; IC50 (Brugia malayi [3]): 1.8 µM; IC50 (Brugia malayi [6]): 4 µM
